Test results from ChEMBL document CHEMBL3988442, “University of Dundee, Small-Polar-MMV Screening Library” (2021).
“And” between values parts separate entries of the source, which are not always exact repeats. Equal entries are not always repeated.

Tested on: Plasmodium falciparum
Experiment: Plasmodium falciparum sporozoite viability assay
Format: functional, organism-based
Conditions: for IC50: Plasmodium falciparum

## Cn1cnc2c1CCN(Cc1csc(-c3ccccc3F)n1)C2
  pIC50: 6.45
  IC50: 0.363 µM

## CNc1cc(C)nc(N2C[C@@H](C(=O)O)[C@H](C3CC3)C2)n1
  pIC50: 5.907
  IC50: 0.989 µM

## COc1cccc(-c2noc(C3CCN(Cc4cn(C)nc4C)C3)n2)c1 (configuration not stated)
  pIC50: 5.995
  IC50: 0.863 µM

## CC/N=c1\nc(NCC)nc2n1C(O)(Nc1ccc(C)cc1C)CS2 (configuration not stated)
  pIC50: 5.511
  IC50: 2.83 µM

## COc1ccc2cc(C3CN(C(=O)N(C)C)CCO3)ccc2c1 (configuration not stated)
  pIC50: 7.993
  IC50: 0.0149 µM

## CSc1cc2c(cc1NC(=O)NCC1CCOC1)OCCO2 (configuration not stated)
  pIC50: 6.419
  IC50: 0.218 µM

## Cc1cc(C)n(CC2CN(Cc3nc4ccccc4s3)CCO2)n1 (configuration not stated)
  pIC50: 6.064
  IC50: 1.72 µM

## O[C@H]1CN(CCOc2ccc(F)cc2)CC[C@@]12CCCO2
  pIC50: 5.66
  IC50: 2.55 µM

## CC(C)(C)n1ncc2c(=O)n(CC(=O)NCc3ccccc3)cnc21
  pIC50: 7.194
  IC50: 0.043 µM

## COC(=O)CC1CCN(C(=O)Nc2ccc(-c3ccn[nH]3)cc2)C1 (configuration not stated)
  pIC50: 6.226
  IC50: 0.436 µM

## COc1cc(NC(=O)c2ccc(CN3CC[C@H](O)C3)cc2)cc(OC)c1
  pIC50: 6.645
  IC50: 0.175 µM

## Cc1ccc(Nc2nccc(C3CCCN(CC(=O)N(C)C)C3)n2)nc1 (configuration not stated)
  pIC50: 5.724
  IC50: 2.68 µM

## NC(=O)C1CN(c2ccc3cc(Br)ccc3n2)CCO1 (configuration not stated)
  pIC50: 7.699 and 7.366

## CCC1CN(C(=O)c2ccc(O)cn2)CCC(=O)N1Cc1ccccc1 (configuration not stated)
  pIC50: 5.529 and 5.955

## Cn1cc(CCC(=O)NS(=O)(=O)N2CCCc3ccccc32)cn1
  pIC50: 6.583
  IC50: 0.157 µM

## OCC1CCCN1c1cc(NCCc2ccsc2)ncn1 (configuration not stated)
  pIC50: 7.515
  IC50: 0.0596 µM

## Cc1ccnc(NC(=O)c2ccc(Cl)o2)c1
  pIC50: 7.621 and 7.995

## CSc1ccc(-c2nc(CN3CCC(NC(C)=O)C3)c(C)o2)cc1 (configuration not stated)
  pIC50: 6.077
  IC50: 0.533 µM

## c1cc(OCc2ccc3c(c2)OCO3)ccc1CNC1CC1
  IC50: > 10.5 µM

## Cc1ccc(Nc2nccc(C3CCN(CC(N)=O)C3)n2)nc1 (configuration not stated)
  pIC50: 7.48
  IC50: 0.021 µM

## COc1cccc(-c2noc(C3CCN(CC(N)=O)C3)n2)c1 (configuration not stated)
  IC50: > 10.5 µM

## CCN1CCN(Cc2coc(-c3cccc(F)c3)n2)CC1
  pIC50: 6.19
  IC50: 0.8 µM

## Cc1ccnc(NC(=O)CSCc2cccnc2)c1
  pIC50: 7.141 and 6.819

## CC(C)c1nc2c(n1C)CCN(Cc1nc(-c3ccsc3)no1)C2
  pIC50: 5.081 and 5.405

## c1ccc2sc(CN3CCCC3c3noc(C4CC4)n3)nc2c1 (configuration not stated)
  pIC50: 5.79 and 6.107

## CSc1cc2c(cc1NC(=O)NCCn1ccnc1)OCCO2
  pIC50: 6.776
  IC50: 0.126 µM

## CC(C)(C)c1cn2nc(N3CCCC(Cn4cncn4)C3)sc2n1 (configuration not stated)
  pIC50: 4.991
  IC50: > 10.5 µM

## CC1CCCN(Cc2csc(-c3ncccn3)n2)CC1 (configuration not stated)
  pIC50: 5.365
  IC50: 4.8 µM

## CCC(CC)c1nnc(NC(=O)N2CCCC(NC(C)=O)C2)s1 (configuration not stated)
  pIC50: 5.262 and 5.718

## CCn1ncc2c1CCCC2NCc1cccc2c1OCO2 (configuration not stated)
  pIC50: 5.451
  IC50: 4.37 µM

## Cc1cccc(C(=O)Nc2ccc(OC3CCN(C)CC3)cc2)c1
  pIC50: 7.031
  IC50: 0.119 µM

## CC(NC(=O)c1cc(C(C)C)[nH]n1)C(=O)Nc1ccccc1 (configuration not stated)
  pIC50: 7.217
  IC50: 0.0489 µM

## CNC(=O)CCC(=O)N1CCOC(c2ccc3cc(OC)ccc3c2)C1 (configuration not stated)
  pIC50: 7.215
  IC50: 0.083 µM

## Cc1ncsc1CN(C)Cc1cc2c(cc1OC(F)F)OCO2
  pIC50: 5.624
  IC50: 3.97 µM

## CC(=O)N1Cc2ccccc2CC1C(=O)Nc1cc(C)ccn1 (configuration not stated)
  pIC50: 7.317
  IC50: 0.0412 µM

## COc1ccc2cc(C3CN(C(=O)CN4CCCC4)CCO3)ccc2c1 (configuration not stated)
  pIC50: 5.408
  IC50: 7.63 µM

## O=C(Nc1ccc(N2CCCC2)nc1)N1CCc2ccccc2C1
  pIC50: 5.522
  IC50: 2.03 µM

## Cc1cc(NC(=O)c2ccc(CN3CC[C@H](O)C3)cc2)ccc1F
  pIC50: 7.801
  IC50: 0.0152 µM
